Entries after “also recorded” stand apart in the source; their conditions may differ. Residues, ends and D or L forms follow the SMILES beside them. *: point of attachment. Cbz = O=C(OCc1ccccc1)*; CH2F = FC*
Columns and labels:
commissural neurons = assay: dorsal spinal cord (commissural explant) survival assay; format: cell-based, rat; conditions: for commissural axon degeneration: 48 hours, hDR6-ECD-Fc at 30 μg/ml and 10 μg/ml
Description: To examine functional roles of DR6 in axonal degeneration and programmed cell death of commissural neurons, an RNAi-based dorsal spinal cord survival assay (Kennedy et al., Cell, 78:425-435 (1994); Wang et al., supra, 1999) was conducted (see FIG. 3). E13 rat or E11.5 mouse embryos were placed in L15 medium (Gibco) and siRNAs (IDT) together with green fluorescent protein (“GFP”)-encoding plasmids were injected into the neural tubes. The siRNAs and plasmids were then delivered to dorsal progenitor cells by electroporation. Dorsal spinal cord explants were dissected out, embedded into a 3D-collagen gel matrix, and cultured in Opti-MEM/F12 medium (Invitrogen) with recombinant netrin-1 ([…]) and 5% horse serum (Sigma) at 37° C. in a 5% CO2 environment. Within 16 hours in response to chemo-attractant netrin-1, commissural axons grow out of the explant into the collagen matrix gel (Kennedy et al., supra, 1994). Commissural axons are visualized by GFP fluorescence by observation using an inverted microscope.
Materials and methods used to generate the data shown in this figure are as follows. To investigate physiological roles of DR6 receptor in axonal degeneration and programmed cell death of commissural neurons, a dorsal spinal cord survival assay according to protocols known in the art (Kennedy et al., Cell, 78:425-435 (1994); Wang et al., Nature, 401:765-769 (1999)) was performed (with data shown in FIG. 4B). E13 rat embryos were placed in L15 medium (Gibco) and injected into their neural tubes with the following siRNA constructs (FIG. 4B): […]
A dorsal spinal cord survival assay (as described in Example 2 above) was conducted using anti-DR6 antibodies. Microscopic observation (using green fluorescence channel for GFP) was employed to visualize commissural axons. […] To visualize GFP-expressing commissural axons, pictures were taken on the Axiovert 200 Zeiss inverted microscope (in green fluorescence channel for GFP) using AxioVision40 Release 4.5.0.0 SP1 (March 2006) computer software from Carl Zeiss Imaging Solutions. […]

sensory neurons = assay: NGF deprivation assay in Campenot Chambers, local sensory axonal degeneration; format: cell-based, mouse; conditions: for sensory axonal degeneration induced by NGF withdrawal: 30 μg/ml in axonal compartments with anti-NGF, 0, 6 and 24 hours
Description: Materials and methods used to generate the data shown in this figure are as follows. To examine whether ligand is required for DR6 function in sensory axonal degeneration, a compartmented culture analysis of sensory axon growth and degeneration was carried out as follows. A Campenot nerve cell chamber system was used to isolate neuronal processes (axons) from the cell bodies in different compartments (separate fluid environments), analogous to neuronal cell bodies in one location of the nervous system projecting their axons to a distal target in another location. The assay was carried out as originally described by Campenot (Campenot et al., J. Neurosci. 11(4): 1126-39 (1991)) with the following modifications. Briefly, 35-mm tissue culture dishes were coated with PDL/Laminin and scratched with a pin rake (Tyler Research) to generate tracks, as illustrated for example in FIGS. 1 and 4 of Campenot et al., supra.
A drop of culture medium (Neurobasal medium with B27 supplement, 25 ng/ml of NGF, and 4 g/L of methylcellulose) was placed on the scratched substratum. A Teflon divider (Tyler Research) was seated on silicone grease and a dab of silicone grease was placed at the mouth of the center slot. Dissociated sensory neurons derived from E12.5 mouse DRGs were suspended in methylcellulose-thickened medium and loaded into a disposable sterile syringe fitted with a 22-gauge needle. This cell suspension was injected into the center slots of each compartmented dish under the dissecting microscope. The neurons were allowed to settle overnight. […]
To trigger local axonal degeneration, NGF-containing medium from axonal compartments was substituted with neurobasal medium with an NGF blocking antibody (anti-NGF, Genentech, Inc., 20 ug/ml). Zero hours, 6 hours, or 24 to 48 hours following NGF deprivation, sensory neurons were fixed in 4% PFA for 30 minutes at room temperature and processed for immunofluorescence staining with axonal marker TUJ-1 (Covance, 1:500 dilution) to visualize degenerating axons by fluorescence microscopy (FIG. 11B) (as above described in Example 7). […]
To examine whether ligand is required for DR6 function in axonal degeneration program triggered by NGF withdrawal, 30 μg/ml of hDR6-ECD-Fc immunoadhesin protein (described in EXAMPLE 3 above) or 30 μg/ml of a control Fc (Genentech, Inc.) was included together with anti-NGF treatment in axonal compartments of Campenot Chambers. Zero to 24 hours after NGF deprivation, axons in Campenot Chambers were fixed with 4% PFA/PBS and visualized by immuno-fluorescence staining with TUJ-1 (1:500, Covance)/secondary antibody conjugated to a fluorescence group Alexa 488 (Molecular Probes, BD) (FIG. 11B). […]

[1] = cited from earlier work
[2] = system: DR6-AP binding sites on BAX null sensory axons; assay: in situ DR6-AP sensory axon binding assay after NGF deprivation; format: cell-based, mouse; conditions: BAX null sensory axons E12.5; BACE inhibitor at 1 uM
Description: For the in situ DR6-AP sensory axon binding assay, either wild-type or Bax null sensory explants were cultured in Neurobasal medium/B27 (Invitrogen) as outlined in the Examples 7-8 above, with 50 ng/ml NGF (Roche). Two days post-plating, DRG explants were either left untreated or deprived from NGF as described above in Examples 7-8. Bax inhibitory peptide was added where indicated on FIG. 12B (10 uM, Bax-V5, Tocris). Twelve hours post-NGF deprivation, DRG explants were washed twice with the binding buffer (HBSS, Gibco Cat. No. 14175-095, with 0.2% BSA, 0.1% NaN3, 5 mM CaCl2, 1 mM MgCl2, 20 mM HEPES, pH=7.0). AP binding assay was then carried out by making a 1:1 mixture of DR6-AP conditioned medium and the binding buffer (or control AP conditioned medium and the binding buffer), which was applied directly to DRG explants in 8-well culture slides (Becton, Dickinson and Company) and incubated for 90 minutes at room temperature.
Following the incubation, unbound DR6-AP proteins were washed away by rinsing DRG explants five times with the binding buffer. DRG explants were then fixed with 3.7% formaldehyde diluted in PBS, for 12 minutes at room temperature. The remaining formaldehyde was removed by rinsing DRG explants 3 times with HBS buffer (20 mM HEPES pH=7.0, 150 mM NaCl). Endogenous AP activity was blocked by heat inactivation at 65° C. in HBS buffer for 30 minutes. […]

Molecule: hDR6-ECD-Fc: human DR6 extracellular domain sequence fused with Fc, SEQ ID NO: 4
- commissural axon degeneration (commissural neurons): delayed
- commissural axon degeneration (commissural neurons; listed as DR6-Fc): can be delayed
- sensory axonal degeneration induced by NGF withdrawal (sensory neurons): delayed sensory axonal degeneration; also recorded: delayed the onset of axonal degeneration
- sensory axonal degeneration induced by NGF withdrawal (sensory neurons; listed as DR6-Fc): can be delayed

Molecule: CC12CC3CC(C)(C1)CC(N)(C3)C2 [Memantine]
- symptoms across SIB, ADCS-ADL19, CIBIC-Plus and NPI outcome measures ([1]; human, in vivo): improvement and stabilization of symptoms
- outcome measures SIB, ADCS-ADL19, CIBIC-Plus, NPI, BGP versus placebo ([1]; patients taking stable doses of Donepezil): benefit over placebo

Molecule: (L)-HIV-TAT48-57-PP-JBD20 [L-JNK-I, reference compound]
- axonal degeneration of commissural neurons (commissural neurons; JNK signaling blocked by peptide inhibitor at 1 μM): partially blocked axonal degeneration

Molecule: CC[C@H](C)[C@H](NC(=O)OCc1ccccc1)C(=O)N[C@@H](CCC(=O)OC)C(=O)N[C@H](C(=O)N[C@@H](CC(=O)OC)C(=O)CF)[C@@H](C)O [caspase-8 inhibitor, Z-IETD-FMK, reference compound] (Cbz-IE(OMe)TD(OMe)-CH2F)
- sensory axonal degeneration after NGF deprivation (sensory neurons; neurons cultured 5 days, then 24 hours, SP 600125 1 uM, Z-IETD-FMK 10 uM, Z-DEVD-FMK 10 uM): delayed

Molecule: OM99-2 [reference compound]
- sensory axonal degeneration in the absence of NGF (sensory neurons; BACE inhibitor at 1 uM): blocked
- disappearance of DR6-AP binding sites from sensory axons following NGF withdrawal [2]: can block the disappearance of DR6-AP binding sites

Reference: patent publication US20100203044A1, “DR6 ANTAGONISTS AND USES THEREOF IN TREATING NEUROLOGICAL DISORDERS” (priority 2006, published 2010)
